Data taken from US10206394B2, “Herbicidal compounds” (Syngenta Participations AG, priority 2014, dated 2019).
Read-outs that look alike come from different tables or passages of the source.

Experiments:
Assay in all cases: Glasshouse assay for herbicidal activity (pre- and post-emergence), percentage phytotoxicity
Assay type in all cases: in vivo
[1] = test system: Lolium perenne (LOLPE); settings: Lolium perenne
How it was run: (§1)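 Pot-grown, standard soil. PRE: spray 1 d post-sowing; POST: ~12 d. Glasshouse 24/18 °C (warm spp.) / 20/16 °C (cool spp.), 16 h light, 65% RH, watered 2×/day. Visual % damage, 20 DAA PRE, 15 DAA POST.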

[2] = test system: Echinochloa crus-galli (ECHCG); settings: Echinochloa crus-galli
How it was run: as §1

[3] = test system: Alopecurus myosuroides (ALOMY); settings: Alopecurus myosuroides
How it was run: as §1

[4] = test system: Avena fatua (AVEFA); settings: Avena fatua
How it was run: as §1

[5] = post-emergence, 360 h, Rate 250 g/ha, post-emergence, visual assessment 15 DAA, 100%=total damage, 0%=no damage, read-out: Post-emergence herbicidal activity (percentage phytotoxicity) LOLPE POST
[6] = pre-emergence, 480 h, Rate 250 g/ha, pre-emergence, visual assessment 20 DAA, 100%=total damage, 0%=no damage, read-out: Pre-emergence herbicidal activity (percentage phytotoxicity) LOLPE PRE
[7] = post-emergence, 360 h, Rate 250 g/ha, post-emergence, visual assessment 15 DAA, 100%=total damage, 0%=no damage, read-out: Post-emergence herbicidal activity (percentage phytotoxicity) ECHCG POST
[8] = pre-emergence, 480 h, Rate 250 g/ha, pre-emergence, visual assessment 20 DAA, 100%=total damage, 0%=no damage, read-out: Pre-emergence herbicidal activity (percentage phytotoxicity) ECHCG PRE
[9] = post-emergence, 360 h, Rate 250 g/ha, post-emergence, visual assessment 15 DAA, 100%=total damage, 0%=no damage, read-out: Post-emergence herbicidal activity (percentage phytotoxicity) ALOMY POST
[10] = pre-emergence, 480 h, Rate 250 g/ha, pre-emergence, visual assessment 20 DAA, 100%=total damage, 0%=no damage, read-out: Pre-emergence herbicidal activity (percentage phytotoxicity) ALOMY PRE
[11] = post-emergence, 360 h, Rate 250 g/ha, post-emergence, visual assessment 15 DAA, 100%=total damage, 0%=no damage, read-out: Post-emergence herbicidal activity (percentage phytotoxicity) AVEFA POST
[12] = pre-emergence, 480 h, Rate 250 g/ha, pre-emergence, visual assessment 20 DAA, 100%=total damage, 0%=no damage, read-out: Pre-emergence herbicidal activity (percentage phytotoxicity) AVEFA PRE
[13] = post-emergence, 360 h, POST-emergence, rate 250 g/ha, visual score 15 DAA (100%=total damage, 0%=no damage), read-out: Post-emergence herbicidal activity (percentage phytotoxicity) LOLPE POST
[14] = pre-emergence, 480 h, PRE-emergence, rate 250 g/ha, visual score 20 DAA (100%=total damage, 0%=no damage), read-out: Pre-emergence herbicidal activity (percentage phytotoxicity) LOLPE PRE
[15] = post-emergence, 360 h, POST-emergence, rate 250 g/ha, visual score 15 DAA (100%=total damage, 0%=no damage), read-out: Post-emergence herbicidal activity (percentage phytotoxicity) ECHCG POST
[16] = pre-emergence, 480 h, PRE-emergence, rate 250 g/ha, visual score 20 DAA (100%=total damage, 0%=no damage), read-out: Pre-emergence herbicidal activity (percentage phytotoxicity) ECHCG PRE
[17] = post-emergence, 360 h, POST-emergence, rate 250 g/ha, visual score 15 DAA (100%=total damage, 0%=no damage), read-out: Post-emergence herbicidal activity (percentage phytotoxicity) ALOMY POST
[18] = pre-emergence, 480 h, PRE-emergence, rate 250 g/ha, visual score 20 DAA (100%=total damage, 0%=no damage), read-out: Pre-emergence herbicidal activity (percentage phytotoxicity) ALOMY PRE
[19] = post-emergence, 360 h, POST-emergence, rate 250 g/ha, visual score 15 DAA (100%=total damage, 0%=no damage), read-out: Post-emergence herbicidal activity (percentage phytotoxicity) AVEFA POST
[20] = pre-emergence, 480 h, PRE-emergence, rate 250 g/ha, visual score 20 DAA (100%=total damage, 0%=no damage), read-out: Pre-emergence herbicidal activity (percentage phytotoxicity) AVEFA PRE
[21] = post-emergence, 360 h, 250 g/ha, post-emergence, 15 DAA, visual assessment (100%=total damage, 0%=no damage), read-out: Post-emergence herbicidal activity (percentage phytotoxicity) LOLPE POST
[22] = pre-emergence, 480 h, 250 g/ha, pre-emergence, 20 DAA, visual assessment (100%=total damage, 0%=no damage), read-out: Pre-emergence herbicidal activity (percentage phytotoxicity) LOLPE PRE
[23] = post-emergence, 360 h, 250 g/ha, post-emergence, 15 DAA, visual assessment (100%=total damage, 0%=no damage), read-out: Post-emergence herbicidal activity (percentage phytotoxicity) ECHCG POST
[24] = pre-emergence, 480 h, 250 g/ha, pre-emergence, 20 DAA, visual assessment (100%=total damage, 0%=no damage), read-out: Pre-emergence herbicidal activity (percentage phytotoxicity) ECHCG PRE
[25] = post-emergence, 360 h, 250 g/ha, post-emergence, 15 DAA, visual assessment (100%=total damage, 0%=no damage), read-out: Post-emergence herbicidal activity (percentage phytotoxicity) ALOMY POST
[26] = pre-emergence, 480 h, 250 g/ha, pre-emergence, 20 DAA, visual assessment (100%=total damage, 0%=no damage), read-out: Pre-emergence herbicidal activity (percentage phytotoxicity) ALOMY PRE
[27] = post-emergence, 360 h, 250 g/ha, post-emergence, 15 DAA, visual assessment (100%=total damage, 0%=no damage), read-out: Post-emergence herbicidal activity (percentage phytotoxicity) AVEFA POST
[28] = pre-emergence, 480 h, 250 g/ha, pre-emergence, 20 DAA, visual assessment (100%=total damage, 0%=no damage), read-out: Pre-emergence herbicidal activity (percentage phytotoxicity) AVEFA PRE

Row | Structure (SMILES) | pest or weed control at 250 g/ha [1, 13] [%] | pest or weed control at 250 g/ha [1, 14] [%] | pest or weed control at 250 g/ha [2, 15] [%] | pest or weed control at 250 g/ha [2, 16] [%] | pest or weed control at 250 g/ha [3, 17] [%] | pest or weed control at 250 g/ha [3, 18] [%] | pest or weed control at 250 g/ha [4, 19] [%] | pest or weed control at 250 g/ha [4, 20] [%] | pest or weed control at 250 g/ha [1, 21] [%] | pest or weed control at 250 g/ha [1, 22] [%] | pest or weed control at 250 g/ha [2, 23] [%] | pest or weed control at 250 g/ha [2, 24] [%] | pest or weed control at 250 g/ha [3, 25] [%] | pest or weed control at 250 g/ha [3, 26] [%] | pest or weed control at 250 g/ha [4, 27] [%] | pest or weed control at 250 g/ha [4, 28] [%] | further results
1 | C#CCNC(=O)CC1CC(=O)C(c2c(C)cc(-c3ncc(F)cc3F)cc2C)C1=O (stereo not shown) [Compound B336] |  |  |  |  |  |  |  |  |  |  |  |  |  |  |  |  | pest or weed control at 250 g/ha [1, 5]: 100%; pest or weed control at 250 g/ha [1, 6]: 100%; pest or weed control at 250 g/ha [2, 7]: 100%; pest or weed control at 250 g/ha [2, 8]: 100%; pest or weed control at 250 g/ha [3, 9]: 100%; pest or weed control at 250 g/ha [3, 10]: 100%; pest or weed control at 250 g/ha [4, 11]: 100%; pest or weed control at 250 g/ha [4, 12]: 100%
2 | C=CCNC(=O)CC1CC(=O)C(c2c(C)cc(-n3cc(Cl)cn3)cc2CC)C1=O (stereo not shown) [Compound B236] | 100 | 90 | 100 | 90 | 100 | 90 | 100 | 90 |  |  |  |  |  |  |  |  | 
3 | Cc1cc(-c2ncc(Cl)cn2)cc(C)c1C1C(=O)C[C@@H](CC(=O)NC(C)(C)C)C1=O (stereo partly shown) [Compound B49] |  |  |  |  |  |  |  |  | 100 | 100 | 100 | 100 | 100 | 100 | 100 | 90 | 
4 | Cc1cc(-c2ncc(F)cc2F)cc(C)c1C1C(=O)CC(CC(=O)NCc2ccc(C(F)(F)F)cc2)C1=O (stereo not shown) [Compound B89] |  |  |  |  |  |  |  |  | 100 | 90 | 100 | 100 | 100 | 90 | 100 | 60 | 
5 | Cc1cc(-c2ccc(Br)cn2)cc(C)c1C1C(=O)CC(CC(=O)NC(C)(C)C)C1=O (stereo not shown) [Compound B322] | 100 | 90 | 100 | 90 | 100 | 90 | 100 | 70 |  |  |  |  |  |  |  |  | 
6 | Cc1cc(-c2ncc(Cl)cn2)cc(C)c1C1C(=O)CC(CC(=O)NC(C)C)C1=O (stereo not shown) [Compound B340] |  |  |  |  |  |  |  |  |  |  |  |  |  |  |  |  | pest or weed control at 250 g/ha [1, 5]: 100%; pest or weed control at 250 g/ha [1, 6]: 100%; pest or weed control at 250 g/ha [2, 7]: 100%; pest or weed control at 250 g/ha [2, 8]: 100%; pest or weed control at 250 g/ha [3, 9]: 100%; pest or weed control at 250 g/ha [3, 10]: 100%; pest or weed control at 250 g/ha [4, 11]: 100%; pest or weed control at 250 g/ha [4, 12]: 100%
7 | Cc1cc(C)c(C2C(=O)CC(CC(=O)NCC3CC3(Cl)Cl)C2=O)c(C)c1 (stereo not shown) [Compound B40] |  |  |  |  |  |  |  |  | 80 | 90 | 90 | 90 | 80 | 90 | 90 | 70 | 
8 | Cc1cc(C)c(C2C(=O)CC(CC(=O)NC3(C#N)CC3)C2=O)c(C)c1 (stereo not shown) [Compound A82] |  |  |  |  |  |  |  |  |  |  |  |  |  |  |  |  | pest or weed control at 250 g/ha ([1]; post-emergence, 360 h, Rate 250 g/ha, post-emergence, assessed visually 15 DAA, 100%=total damage, 0%=no damage, read-out: Post-emergence herbicidal activity (percentage phytotoxicity) LOLPE POST): 30%; pest or weed control at 250 g/ha ([2]; post-emergence, 360 h, Rate 250 g/ha, post-emergence, assessed visually 15 DAA, 100%=total damage, 0%=no damage, read-out: Post-emergence herbicidal activity (percentage phytotoxicity) ECHCG POST): 30%; pest or weed control at 250 g/ha ([3]; post-emergence, 360 h, Rate 250 g/ha, post-emergence, assessed visually 15 DAA, 100%=total damage, 0%=no damage, read-out: Post-emergence herbicidal activity (percentage phytotoxicity) ALOMY POST): 10%; pest or weed control at 250 g/ha ([4]; post-emergence, 360 h, Rate 250 g/ha, post-emergence, assessed visually 15 DAA, 100%=total damage, 0%=no damage, read-out: Post-emergence herbicidal activity (percentage phytotoxicity) AVEFA POST): 10%
9 | Cc1cc(C)c(C2C(=O)CC(CC(=O)NC(C)(C)CCl)C2=O)c(C)c1 (stereo not shown) [Compound B39] |  |  |  |  |  |  |  |  | 60 | 60 | 50 | 0 | 80 | 30 | 70 | 30 | 
10 | CCc1cc(OCC(F)(F)F)cc(C)c1C1C(=O)CC(CC(=O)NCc2cccc(F)c2)C1=O (stereo not shown) [Compound B214] | 100 | 90 | 100 | 100 | 100 | 100 | 100 | 90 |  |  |  |  |  |  |  |  | 
11 | C=C(C)CNC(=O)CC1CC(=O)C(c2c(C)cc(-c3ncc(Cl)cc3F)cc2C)C1=O (stereo not shown) [Compound B94] |  |  |  |  |  |  |  |  | 100 | 100 | 100 | 100 | 100 | 100 | 100 | 90 | 
12 | Cc1cc(-c2ncc(F)cc2F)cc(C)c1C1C(=O)CC(CC(=O)NCC2CC2(Cl)Cl)C1=O (stereo not shown) [Compound B77] |  |  |  |  |  |  |  |  | 100 | 100 | 100 | 100 | 100 | 90 | 100 | 90 | 
13 | C/C=C/c1cc(C)c(C2C(=O)CC(CC(=O)NCc3ccc(OC)cc3)C2=O)c(CC)c1 (stereo not shown) [Compound B189] | 90 | 80 | 100 | 80 | 90 | 60 | 90 | 40 |  |  |  |  |  |  |  |  | 
